Test results reported in patent EP0174085A2, “Bisarylamides of N,N'-di-[1-aminoalkyl-2]-alkylene diamines having a cardiovascular activity” (BEECHAM - WUELFING GmbH & Co. KG, priority 1984, dated 1986).

How the values were obtained:
anaesthetized rats [1] = experiment: Antianginal activity, vasopressin-induced ST-segment elevation in the ECG, i.v.; format: in vivo; conditions: Rattus norvegicus, iv, reduction of ST-segment elevation after i.v. 1 I.U./kg vasopressin, read-out: minimum effective i.v. antianginal dose
anaesthetized rats [2] = experiment: Haemodynamic profile in anaesthetized rats; format: in vivo; parameters: Dhr20 = i.v. dose which reduces heart rate by ca. 20%: unit not given here; conditions: for %effect of Dhr20 on LVP (systolic left ventricular pressure) / %effect of Dhr20 on dp/dtmax / %effect of Dhr20 on BP (mean arterial blood pressure): at Dhr20, i.v.; for %effect of Dhr20 on LVP (systolic left ventricular pressure) / %effect of Dhr20 on dp/dtmax / Dhr20 = i.v. dose which reduces heart rate by ca. 20% / %effect of Dhr20 on BP (mean arterial blood pressure): rat; for %effect of Dhr20 on dp/dtmax: left ventricular dp/dt max
Source text: The effect of compounds of the invention on heart rate, systolic left ventricular pressure, left ventricular dp/dt max and mean arterial blood pressure was investigated so as to obtain information on the anti-anginal potential of these compounds, by reducing the oxygen demand of the ischaemic heart.

anaesthetized rats [3] = experiment: Vasopressin test in anaesthetized rats (coronary spasm), intraduodenal; format: in vivo; conditions: 32mg/kg i.d.
Description: Vasopressin (Lysopressin: 1 I.U./kg) was administered intravenously in order to provoke coronary spasm. Compound (El) was active against coronary spasm at a dose of 32mg/kg i.d. with a duration of action greater than 2 hours. The ability of test compounds to reduce coronary spasm is taken as a measure of their anti-anginal potential in spasm - induced angina pectoris. (Ref. Drug.Res. 33(11), 8,1117-1121 (1983)).

conscious rabbits = experiment: Antiarrhythmic activity, suprathreshold cardiac electric stimulation in conscious rabbits; format: in vivo
Description: Compound (El) infused at 2.5mg/min in the ear vein of conscious rabbits inhibited the arrhythmogenic effect of suprathreshold cardiac electric stimulation. The therapeutic index, i.e. the ratio between the dose of compound required to produce A-V-block (8 mg/kg) and that dose which gave an antiarrhythmic effect (0.9mg/kg) was 8.9.

[4] = tested on: guinea-pig papillary muscle; experiment: Ca++-antagonistic activity, calcium dependent action potentials in papillary muscle in vitro; format: cell-based; conditions: 1-3 x 10^-6M; 34+ 1°C; krebs medium containing 26 nM K+ and 0.5 nM BaCl2
Description: In guinea-pig papillary muscle (34+ 1°C) in vitro, the Compound (El) (1-3 x 10-^6M) depressed the maximal rate of rise (Vmax) of calcium dependent action potentials evoked in krebs medium containing […] K^+ and […], BaC12. These action potentials were recorded using conventional intracellular techniques.

CCC(CNC(=O)c1cc(OC)c(OC)c(OC)c1)N(C)CCN(C)C(CC)CNC(=O)c1cc(OC)c(OC)c(OC)c1 (stereo not drawn) [Compound E1, N,N'-dimethyl-N,N'-di-[1-(3,4,5-trimethoxybenzamido)-butyl-(2)]-ethylenediamine]
minimal effective dose (anaesthetized rats [1]): 0.2 mg/kg
%effect of Dhr20 on LVP (systolic left ventricular pressure) (anaesthetized rats [2]): -17%
%effect of Dhr20 on dp/dtmax (anaesthetized rats [2]): -24%
i.v. duration of action on heart rate (rat) (anaesthetized rats [2]): 5 min
Dhr20 = i.v. dose which reduces heart rate by ca. 20% (anaesthetized rats [2]): 3.2
duration of action (anaesthetized rats [3]; against coronary spasm): greater than 2 hours
activity against coronary spasm (anaesthetized rats [3]; vasopressin (Lysopressin) 1 I.U./kg i.v.): active
minimal effective dose (conscious rabbits; Oryctolagus cuniculus, iv, infusion in the ear vein, conscious rabbits, read-out: dose which gave an antiarrhythmic effect): 0.9 mg/kg
arrhythmogenic effect of suprathreshold cardiac electric stimulation (conscious rabbits; infused at 2.5mg/min in the ear vein, conscious rabbits): inhibited
dose of compound required to produce A-V-block (conscious rabbits; infusion in the ear vein, conscious rabbits): 8 mg/kg
therapeutic index (conscious rabbits; ratio of A-V-block dose to antiarrhythmic dose): 8.9
maximal rate of rise (Vmax) of calcium dependent action potentials [4]: depressed

CCC(CNC(=O)c1cc(Cl)cc(Cl)c1)N(C)CCN(C)C(CC)CNC(=O)c1cc(Cl)cc(Cl)c1 (stereo not drawn) [Compound E2, N,N'-dimethyl-N,N'-di-(2-[1-(3,5-dichlorobenzamido)] -butyl)-ethylene-diamine]
%effect of Dhr20 on BP (mean arterial blood pressure) (anaesthetized rats [2]): -7%
%effect of Dhr20 on dp/dtmax (anaesthetized rats [2]): -21%
i.v. duration of action on heart rate (rat) (anaesthetized rats [2]): 15 min
Dhr20 = i.v. dose which reduces heart rate by ca. 20% (anaesthetized rats [2]): 3.2

CCC(CNC(=O)c1cccc(Cl)c1)N(C)CCN(C)C(CC)CNC(=O)c1cccc(Cl)c1 (stereo not drawn) [Compound E3]
%effect of Dhr20 on BP (mean arterial blood pressure) (anaesthetized rats [2]): -16%
%effect of Dhr20 on LVP (systolic left ventricular pressure) (anaesthetized rats [2]): -2%
%effect of Dhr20 on dp/dtmax (anaesthetized rats [2]): -15%
i.v. duration of action on heart rate (rat) (anaesthetized rats [2]): 10 min
Dhr20 = i.v. dose which reduces heart rate by ca. 20% (anaesthetized rats [2]): 1.6

CCC(CNC(=O)c1ccc(C#N)cc1)N(C)CCN(C)C(CC)CNC(=O)c1ccc(C#N)cc1 (stereo not drawn) [Compound E7]
%effect of Dhr20 on BP (mean arterial blood pressure) (anaesthetized rats [2]): -6%
%effect of Dhr20 on LVP (systolic left ventricular pressure) (anaesthetized rats [2]): -5%
%effect of Dhr20 on dp/dtmax (anaesthetized rats [2]): -15%
i.v. duration of action on heart rate (rat) (anaesthetized rats [2]): 5 to 10 min
Dhr20 = i.v. dose which reduces heart rate by ca. 20% (anaesthetized rats [2]): 3.2

CC[C@@H](CNC(=O)c1cc(OC)c(OC)c(OC)c1)N(C)CCN(C)[C@@H](CC)CNC(=O)c1cc(OC)c(OC)c(OC)c1 [Compound E8]
%effect of Dhr20 on BP (mean arterial blood pressure) (anaesthetized rats [2]): -30%
%effect of Dhr20 on LVP (systolic left ventricular pressure) (anaesthetized rats [2]): -29%
%effect of Dhr20 on dp/dtmax (anaesthetized rats [2]): -36%
Dhr20 = i.v. dose which reduces heart rate by ca. 20% (anaesthetized rats [2]): 3.2

CCC(CNC(=O)c1ccc(OC)c(OC)c1)N(C)CCN(C)C(CC)CNC(=O)c1ccc(OC)c(OC)c1 (stereo not drawn) [Compound E11]
%effect of Dhr20 on BP (mean arterial blood pressure) (anaesthetized rats [2]): -2%
%effect of Dhr20 on LVP (systolic left ventricular pressure) (anaesthetized rats [2]): -4%
%effect of Dhr20 on dp/dtmax (anaesthetized rats [2]): -7%
i.v. duration of action on heart rate (rat) (anaesthetized rats [2]): 5 to 10 min
Dhr20 = i.v. dose which reduces heart rate by ca. 20% (anaesthetized rats [2]): 3.2

CCC(CNC(=O)c1ccc2c(c1)OCO2)N(C)CCN(C)C(CC)CNC(=O)c1ccc2c(c1)OCO2 (stereo not drawn) [Compound E12]
%effect of Dhr20 on BP (mean arterial blood pressure) (anaesthetized rats [2]): -4%
%effect of Dhr20 on LVP (systolic left ventricular pressure) (anaesthetized rats [2]): -8%
%effect of Dhr20 on dp/dtmax (anaesthetized rats [2]): -11%
i.v. duration of action on heart rate (rat) (anaesthetized rats [2]): 10 to 15 min
Dhr20 = i.v. dose which reduces heart rate by ca. 20% (anaesthetized rats [2]): 1.6

COc1cc(C(=O)NCC2CCCCN2CCN2CCCCC2CNC(=O)c2cc(OC)c(OC)c(OC)c2)cc(OC)c1OC (stereo not drawn) [Compound E16]
%effect of Dhr20 on BP (mean arterial blood pressure) (anaesthetized rats [2]): -17%
%effect of Dhr20 on LVP (systolic left ventricular pressure) (anaesthetized rats [2]): -17.3%
%effect of Dhr20 on dp/dtmax (anaesthetized rats [2]): -32%
i.v. duration of action on heart rate (rat) (anaesthetized rats [2]): 10 min
Dhr20 = i.v. dose which reduces heart rate by ca. 20% (anaesthetized rats [2]): 6.4

CCC(CNC(=O)c1ccncc1)N(C)CCN(C)C(CC)CNC(=O)c1ccncc1 (stereo not drawn) [Compound E29]
%effect of Dhr20 on BP (mean arterial blood pressure) (anaesthetized rats [2]): -10%
%effect of Dhr20 on LVP (systolic left ventricular pressure) (anaesthetized rats [2]): -6%
%effect of Dhr20 on dp/dtmax (anaesthetized rats [2]): -2%
i.v. duration of action on heart rate (rat) (anaesthetized rats [2]): 10 min
Dhr20 = i.v. dose which reduces heart rate by ca. 20% (anaesthetized rats [2]): 12.8

CCC(CNC(=O)c1cccnc1)N(C)CCN(C)C(CC)CNC(=O)c1cccnc1 (stereo not drawn) [Compound E30, N,N'-dimethyl-N,N'-di[1-nicotinoylamido-butyl-(2)]-ethylene-diamine]
%effect of Dhr20 on BP (mean arterial blood pressure) (anaesthetized rats [2]): -14%
%effect of Dhr20 on LVP (systolic left ventricular pressure) (anaesthetized rats [2]): -9%
%effect of Dhr20 on dp/dtmax (anaesthetized rats [2]): -15%
i.v. duration of action on heart rate (rat) (anaesthetized rats [2]): 10 min
Dhr20 = i.v. dose which reduces heart rate by ca. 20% (anaesthetized rats [2]): 12.8

CCC(CNC(=O)c1cc(OC)c(OC)c(OC)c1)N1CCC(N(C)C(CC)CNC(=O)c2cc(OC)c(OC)c(OC)c2)CC1 (stereo not drawn) [Compound E38, 1-[1-(3,4,5-trimethoxybenzamido-butyl-(2))]-4-N-methyl-N-[1-(3,4,5-trimethoxybenzamido-butyl-(2))]-amino-piperidine]
%effect of Dhr20 on BP (mean arterial blood pressure) (anaesthetized rats [2]): -6%
%effect of Dhr20 on LVP (systolic left ventricular pressure) (anaesthetized rats [2]): -7%
%effect of Dhr20 on dp/dtmax (anaesthetized rats [2]): -32%
i.v. duration of action on heart rate (rat) (anaesthetized rats [2]): 10 to 15 min
Dhr20 = i.v. dose which reduces heart rate by ca. 20% (anaesthetized rats [2]): 12.8
